From ChEMBL document CHEMBL3616435, “Cytotoxic cardenolides from the latex of Calotropis procera” (Bioorg Med Chem Lett, 2015)

How the values were obtained:
HeLa = test: Cytotoxicity against human HeLa cells by MTT assay; assay type: functional, cell-based
Bacillus subtilis = test: Antimicrobial activity against Bacillus subtilis after 16 hrs by broth microdilution method; assay type: functional
Escherichia coli = test: Antimicrobial activity against Escherichia coli after 16 hrs by broth microdilution method; assay type: functional
Candida albicans = test: Antimicrobial activity against Candida albicans after 16 hrs by broth microdilution method; assay type: functional
Staphylococcus aureus = test: Antimicrobial activity against methicillin-resistant Staphylococcus aureus after 16 hrs by broth microdilution method; assay type: functional
A549 = test: Cytotoxicity against human A549 cells by MTT assay; assay type: functional, cell-based

| SMILES | IC50 (HeLa) | MIC (Bacillus subtilis) | MIC (Escherichia coli) | MIC (Candida albicans) | MIC (Staphylococcus aureus) | IC50 (A549) |
| --- | --- | --- | --- | --- | --- | --- |
| C[C@@H]1C[C@@H](O)[C@]2(O)O[C@@H]3C[C@@]4(C=O)[C@@H](CC[C@@H]5[C@@H]4CC[C@]4(C)[C@@H](C6=CC(=O)OC6)C[C@@H](O)[C@]54O)C[C@H]3O[C@@H]2C1 | 128 nM | > 100 µg/mL | > 100 µg/mL | > 100 µg/mL | > 100 µg/mL | 79 nM |
| CO[C@@H]1C[C@@H](C)C[C@H]2O[C@@H]3C[C@@H]4CC[C@@H]5[C@H](CC[C@]6(C)[C@@H](C7=CC(=O)OC7)C[C@@H](O)[C@]56O)[C@@]4(C=O)C[C@H]3O[C@@]12O | 104 nM | > 100 µg/mL | > 100 µg/mL | > 100 µg/mL | > 100 µg/mL | 65 nM |
| C[C@@H]1C[C@@H](O)[C@]2(O)O[C@@H]3C[C@@]4(C)[C@@H](CC[C@@H]5[C@@H]4CC[C@]4(C)[C@@H](C6=CC(=O)OC6)C[C@@H](O)[C@]54O)C[C@H]3O[C@@H]2C1 | 663 nM | > 100 µg/mL | > 100 µg/mL | > 100 µg/mL | > 100 µg/mL | 347 nM |
| C[C@H]1C[C@H]2O[C@@H]3C[C@@H]4CC[C@@H]5[C@H](CC[C@]6(C)[C@@H](C7=CC(=O)OC7)CC[C@]56O)[C@@]4(C=O)C[C@H]3O[C@@]2(O)[C@H](O)[C@@H]1O | 87 nM | > 100 µg/mL | > 100 µg/mL | > 100 µg/mL | > 100 µg/mL | 58 nM |
| C[C@H]1C[C@H]2O[C@@H]3C[C@@H]4CC[C@@H]5[C@H](CC[C@]6(C)[C@@H](C7=CC(=O)OC7)C[C@@H](O)[C@]56O)[C@@]4(C=O)C[C@H]3O[C@@]2(O)[C@@]2(C1)N=CCS2 | 318 nM | > 100 µg/mL | > 100 µg/mL | > 100 µg/mL | > 100 µg/mL | 157 nM |
| C[C@]12[C@H](O)C[C@H]3[C@@H](CC[C@H]4C[C@H](O)CC[C@@]43CO)[C@@]1(O)CC[C@@H]2C1=CC(=O)OC1 | 1150 nM | > 100 µg/mL | > 100 µg/mL | > 100 µg/mL | > 100 µg/mL | 604 nM |
| C[C@]12[C@H](O)C[C@H]3[C@@H](CC[C@H]4C[C@H](O)CC[C@@]43C=O)[C@@]1(O)CC[C@@H]2C1=CC(=O)OC1 | 1430 nM | > 100 µg/mL | > 100 µg/mL | > 100 µg/mL | > 100 µg/mL | 1020 nM |
| C[C@]12C[C@@H](O)[C@H](O)C[C@@H]1CC[C@@H]1[C@@H]2CC[C@]2(C)[C@@H](C3=CC(=O)OC3)C[C@@H](O)[C@]12O | 2470 nM | > 100 µg/mL | > 100 µg/mL | > 100 µg/mL | > 100 µg/mL | 1690 nM |
| C[C@]12[C@H](O)C[C@H]3[C@@H](CC[C@H]4C[C@@H](O)CC[C@@]43CO)[C@@]1(O)CC[C@@H]2C1=CC(=O)OC1 | 863 nM | > 100 µg/mL | > 100 µg/mL | > 100 µg/mL | > 100 µg/mL | 549 nM |
| C[C@@H]1C[C@@H](O)[C@]2(O)O[C@@H]3C[C@@]4(C=O)[C@@H](CC[C@@H]5[C@@H]4CC[C@]4(C)[C@@H](C6=CC(=O)OC6)CC[C@]54O)C[C@H]3O[C@@H]2O1 [CALACTIN] | – | > 100 µg/mL | > 100 µg/mL | > 100 µg/mL | > 100 µg/mL | – |
| C[C@@H]1C[C@@]2(N=CCS2)[C@]2(O)O[C@@H]3C[C@@]4(C=O)[C@@H](CC[C@@H]5[C@@H]4CC[C@]4(C)[C@@H](C6=CC(=O)OC6)CC[C@]54O)C[C@H]3O[C@@H]2O1 [USCHARIN] | 275 nM | > 100 µg/mL | > 100 µg/mL | > 100 µg/mL | > 100 µg/mL | 104 nM |
